Patent US9101567B2, “Suppression of cancer growth and metastasis using nordihydroguaiaretic acid derivatives with 7-hydroxystaurosporine” (The Johns Hopkins University, priority 2010, dated 2015)

Key:
BNIP3L = assay: Western blotting of BNIP3L in LNCaP cells; assay type: cell-based, human; settings: M4N 80 μM
Procedure: (§1) The sample volumes were adjusted by the total protein amount. Protein assay was performed by Bio-Rad Protein Assay (Bio-Rad Laboratories, Inc. Hercules, Calif.). The samples were resolved by the standard SDS-polyacrylamide gel electrophoresis and transferred to nitrocellulose membrane (Amersham Biosciences, Bjorkgatan, Sweden). The membranes were blocked with skim milk, and incubated with primary antibodies at 4° C. overnight and then with secondary antibody conjugated with horse radish peroxidase at room temperature for 2 hrs. The signals were detected by western blot chemiluminescence reagent plus (New England Nuclear Life Science Products, Boston, Mass.). BNIP3 is a member of Bcl-2 family proteins which sends pro-apoptotic signal to mitochondria and induces mitochondrial membrane potential depolarization. […] This implies that BNIP3 is involved in autophagy as well as cell death. […] Since BNIP3 is known to be activated more under hypoxic conditions (24), BNIP3 expression was examined in both normoxic and hypoxic conditions (FIGS. 3A&B). […] Previously it was shown that BNIP3 expression is augmented by hypoxia through both […] (HIF)1α-dependent and nondependent pathways (24).

Beclin-1 = assay: Western blotting of Beclin-1 in LNCaP cells; assay type: cell-based, human; settings: normoxic or hypoxic, 6 or 18 hr, M4N 80 μM
Procedure: as §1

LNCaP tumors = assay: Nude mice orthotopically implanted with LNCaP tumors: life-span and lung metastasis; assay type: in vivo, nude (nu/nu) mice; settings: LNCaP tumor-bearing nude mice; lung sections, hematoxylin and eosin
Procedure: T-cell deficient male nude mice (nu/nu) were obtained from Charles River Laboratories (Wilmington, Mass.). […] For drug combinations (M4N/etoposide, M4N/rapamycin, and M4N/UCN-01), etoposide, rapamycin, or UCN-01 powder was further added to M4N in CPE 25/30 to make a final concentration of M4N (10 mg/ml) respectively with etoposide (4 mg/ml), rapamycin (3.75 mg/ml), or UCN-01 (884 g/ml) in CPE 25/30 formulation. These drugs were intravenously injected into the tail vein of mice at the daily dose of 0.1 ml per mouse. Therefore dosages of each injection were 1 mg/shot (for M4N), 0.4 mg/shot (for etoposide), 0.375 mg/shot (for rapamycin), and 88.4 μg/shot (for UCN-01). The drug injections were performed once every day; beginning at day 3 until day 31 after tumor inoculation for the combination treatment with either etoposide or rapamycin and until day 25 after tumor inoculation for the combination treatment with UCN-01. After this the drugs were injected once a week for etoposide/rapamycin combination treatment and once every three days until day 35 for UCN-01 combination treatment.
LNCaP cells growing subconfluently were collected into the tissue culture medium without fetal bovine serum and antibiotics. The cell concentration was adjusted by the same medium. […]

LC3B = assay: Immunocytochemistry of LC3B (autophagosomes) in LNCaP cells; assay type: cell-based, human; settings: 6 hrs, Baflomycin A1 (100 nM), control cells and cells under combination treatments, M4N 80 μM
Excerpt: […] After permeabilized by 0.2% Tryton X-100 and 1% goat serum diluted in PBS (−), the cells were blocked by PBS (−) containing 5% goat serum.

LC3B-II [1] = assay: Western blotting of LC3B-I&II (autophagy) in LNCaP cells; assay type: cell-based, human; settings: 18 hrs, in the presence of Baflomycin A1 (100 nM), M4N 80 μM
Procedure: (§2) The sample volumes were adjusted by the total protein amount. Protein assay was performed by Bio-Rad Protein Assay (Bio-Rad Laboratories, Inc. Hercules, Calif.). The samples were resolved by the standard SDS-polyacrylamide gel electrophoresis and transferred to nitrocellulose membrane (Amersham Biosciences, Bjorkgatan, Sweden). The membranes were blocked with skim milk, and incubated with primary antibodies at 4° C. overnight and then with secondary antibody conjugated with horse radish peroxidase at room temperature for 2 hrs. The signals were detected by western blot chemiluminescence reagent plus (New England Nuclear Life Science Products, Boston, Mass.).

[2] = tested on: mitochondrial membrane potential (ΔΨm); assay: Measurement of mitochondrial membrane potential with JC-1 dye in LNCaP cells; assay type: cell-based, human
Procedure: The cells were cultured in 6 well microwell dishes and treated with the culture medium containing JC-1 dye (Cayman Chemical, Ann Arbor, Mich.) for 30 min, according to the company's protocol. After the cells had been washed carefully, they were treated with M4N for 5 hrs. The cells were observed through B29/Zeiss LSM 510 μMETA laser confocal microscope (Carl Zeiss, Germany). The cell images were captured by two different excitation lights (with 488 nm argon-ion and 568 nm argon-krypton lasers). Both JC-1 monomer and J-aggregates are detected by 488 nm excitation light while only J-aggregates are detected by 568 nm excitation light. The ratio of the intensity of the emission light excited by 568 nm light to that of the emission light excited by 488 nm light at every pixel of images (The ratio should indicate the mitochondrial potential) was calculated by the imaging software (Carl Zeiss, Germany). In the figure the ratio was shown by pseudo color. Red color indicates high ratio (high potential) while dark blue indicates low ratio (low potential). Yellow through green to light blue represents medium ratio (medium potential).
Since BNIP3 functions to activate mitochondria-related cell death machinery and induce mitochondrial membrane depolarization, the effect of M4N on the mitochondrial membrane potential (ΔΨm) was examined (FIG. 3C). […]

LC3B-II [3] = assay: Western blotting of LC3B-II (autophagy) in HepG2 cells; assay type: cell-based, human; settings: HepG2, 15 hrs; M4N 80 μM
Procedure: as §2, with “Mass.). The effect of […] on autophagy was examined using the western blotting for LC3B-II in the presence of Baflomycin A1 in MCF-7 and HepG2 cells (FIG. 4D).” for “Mass.).”

caspase-7 = assay: Western blotting of caspase-7 cleavage in HepG2 cells; assay type: cell-based, human; settings: HepG2, 17 hrs; M4N 80 μM, etoposide 20 μM, rapamycin 20 μM, UCN-01 5 μM
Procedure: as §2
The effect of the combination treatments on cell death and autophagy was examined in two cell lines other than LNCaP cells.

COc1ccc(C[C@@H](C)[C@@H](C)Cc2ccc(OC)c(OC)c2)cc1OC [M4N, Tetra-O-methyl nordihyroguaiaretic acid]
BNIP3L expression (BNIP3L): only slightly reduced | Beclin-1 expression (Beclin-1): not affected | mice with obvious lung metastasis (histology) (LNCaP tumors): 2 out of 4 | net amount of autophagosomes (LC3B staining) (LC3B): reduced the net amount of autophagosomes | net LC3B-II formation (net autophagic activity) (LC3B-II [1]): almost totally suppressed | mitochondrial membrane potential (ΔΨm) ([2]; 5 hrs, M4N 80 μM, JC-1 dye): hyperpolarized | depolarization of mitochondrial membrane potential induced by rottlerin or Ly294002 ([2]; concomitant treatment with M4N): reversed to the normal potential to some extent | autophagy (LC3B-II in the presence of Baflomycin A1) (LC3B-II [3]): blocks autophagy

CN[C@@H]1C[C@H]2O[C@@](C)([C@@H]1OC)n1c3ccccc3c3c4c(c5c6ccccc6n2c5c31)C(=O)N[C@H]4O [UCN-01, 7-hydroxystaurosporine]
caspase-7 cleavage product (caspase-7): great deal
